Test results taken from PMC3871636 (PLoS ONE, 2013).
Counter-ions that a name gives are not always drawn.

Legend:
CYP3A4(C64/C121) mutant = CYP3A4(C64/C121) mutant (Homo sapiens, UniProt P08684, A121C/C239S/C377S/C468A/C98S/S18F); assay: Ligand-induced spin shift, absorbance titration
Method: (§1) All absorbance and fluorescence assays (including the time-resolved fluorescence measurements) were performed at a protein concentration ≤1 µM at 25°C with continuous stirring. Absorbance spectra were recorded with an S2000 rapid scanning CCD spectrometer (Ocean Optics). Ligand binding assays were done in 100 mM Na-Hepes buffer, pH 7.4, containing 0.5 mM EDTA.
(§2) Absorbance spectra obtained in titration experiments were analyzed with a principal component analysis (PCA) procedure complemented with least-square approximation of the principal vectors with a combination of the prototypical spectra of the CYP3A4 low-spin, high-spin and Type II-substrate-bound ferric CYP3A4 P450 states as described, [31].
(§3) When fitting the results of titration experiments, where the changes in the monitored signal A S (fraction of the enzyme in the high-spin state, intensity or the lifetime of the donor phosphorescence at a given substrate concentration) were assumed to be proportional to [ES], this equation was complemented with the offset A 0 and the scaling factor A max to yield the following relationship: [drawing 5] (Eq.5)

[1] = molecular target: wild type CYP3A4 (N-terminally truncated Δ3-12, S18F) (Homo sapiens, UniProt P08684, S18F); assay: Ligand-induced spin shift, absorbance titration
Chain of wild type CYP3A4 (N-terminally truncated Δ3-12, S18F) (P08684 with tags, fused parts or gaps S18F): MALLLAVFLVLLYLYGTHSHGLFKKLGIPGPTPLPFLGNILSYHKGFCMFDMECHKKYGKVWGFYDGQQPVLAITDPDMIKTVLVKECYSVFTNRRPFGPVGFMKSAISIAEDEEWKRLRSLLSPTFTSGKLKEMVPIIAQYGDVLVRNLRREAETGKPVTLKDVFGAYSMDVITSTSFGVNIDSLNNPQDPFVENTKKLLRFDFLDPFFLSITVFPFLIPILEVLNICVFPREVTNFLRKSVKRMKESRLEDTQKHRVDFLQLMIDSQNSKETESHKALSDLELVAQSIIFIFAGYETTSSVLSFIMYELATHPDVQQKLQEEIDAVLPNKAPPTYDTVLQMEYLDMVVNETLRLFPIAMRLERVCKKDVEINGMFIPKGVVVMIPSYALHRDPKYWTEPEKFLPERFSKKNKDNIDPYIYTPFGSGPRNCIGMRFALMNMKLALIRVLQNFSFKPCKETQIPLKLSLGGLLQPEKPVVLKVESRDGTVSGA
Method: as §1, §2, §3

CYP3A4(C377/C468) mutant = CYP3A4(C377/C468) mutant (Homo sapiens, UniProt P08684, S18F, form not given); assay: Ligand-induced spin shift, absorbance titration; format: binding; details: C377/C468
Chain of CYP3A4(C377/C468) mutant (P08684 13-503 S18F, form open): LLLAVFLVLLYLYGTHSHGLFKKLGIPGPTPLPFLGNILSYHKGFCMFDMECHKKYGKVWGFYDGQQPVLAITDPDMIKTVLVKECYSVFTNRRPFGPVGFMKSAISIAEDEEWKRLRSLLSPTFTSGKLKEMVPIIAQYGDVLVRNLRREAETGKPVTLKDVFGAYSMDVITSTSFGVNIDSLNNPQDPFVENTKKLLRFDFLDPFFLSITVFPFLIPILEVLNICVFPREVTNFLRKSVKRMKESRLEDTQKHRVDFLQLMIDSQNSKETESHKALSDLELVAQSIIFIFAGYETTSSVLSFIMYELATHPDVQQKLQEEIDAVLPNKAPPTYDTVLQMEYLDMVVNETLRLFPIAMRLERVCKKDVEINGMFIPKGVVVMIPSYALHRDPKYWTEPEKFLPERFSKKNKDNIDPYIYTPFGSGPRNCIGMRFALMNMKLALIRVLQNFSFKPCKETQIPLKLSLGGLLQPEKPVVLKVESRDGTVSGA
How it was run: (§4)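 Ligand binding monitored by absorbance titration at ≤1 µM protein, 25°C with stirring, in 100 mM Na-Hepes pH 7.4 with 0.5 mM EDTA. Spectra were resolved by PCA into low-spin, high-spin and Type II-bound ferric states; high-spin fraction versus ligand concentration was fitted with offset and scaling factor.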

[2] = molecular target: double-labeled CYP3A4 C64/C468-ER/DY (Homo sapiens, UniProt P08684, S18F, form not given); assay: Ligand-induced spin shift, absorbance titration; format: binding; details: (C64/C468)-ER/DY
Chain of double-labeled CYP3A4 C64/C468-ER/DY (P08684 13-503 S18F, form open): as above
How it was run: as §4

CYP3A4(C64/C468) mutant = CYP3A4(C64/C468) mutant (Homo sapiens, UniProt P08684, S18F, form not given); assay: Ligand-induced spin shift, absorbance titration; format: binding; details: C64/C468
Chain of CYP3A4(C64/C468) mutant (P08684 13-503 S18F, form open): as above
How it was run: as §4

[3] = molecular target: CYP3A4 (double-labeled C64/C468-ER/DY) (Homo sapiens, UniProt P08684, form not given/S18F); assay: Ligand-induced spin shift, absorbance titration; format: binding; details: human, purified double-labeled CYP3A4 C64/C468-ER/DY protein, pH 7.4; read-out: K D or S 50
Chain of CYP3A4 (double-labeled C64/C468-ER/DY) (P08684 13-503 S18F, form open): as above
How it was run: as §4

[4] = molecular target: CYP3A4 (double-labeled (C64/C468)-DY/ER) (Homo sapiens, UniProt P08684, form not given/S18F); assay: Steady-state LRET titration (delayed emission); format: binding; details: human, purified double-labeled CYP3A4 (C64/C468)-DY/ER protein, pH 7.4; (C64/C468)-DY/ER; LRET titration; read-out: K d, steady-state fluorescence
Chain of CYP3A4 (double-labeled (C64/C468)-DY/ER) (P08684 13-503 S18F, form open): as above
How it was run: (§5)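 Protein at ≤1 µM, 25°C, stirred, in 100 mM Na-Hepes pH 7.4 with 0.5 mM EDTA, kept anaerobic with a protocatechuate-3,4-dioxygenase/protocatechuic acid scavenger. Delayed emission (100 µs delay) recorded from 650 to 860 nm at 540 nm excitation, with PCA-resolved donor/acceptor intensities giving LRET efficiency and distances (κ² 0.667, n 1.4). Titration signals fitted to a binding equation with offset and scaling terms.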

[5] = molecular target: double-labeled CYP3A4 C377/C468-DY/ER (Homo sapiens, UniProt P08684, S18F, form not given); assay: Steady-state LRET titration (delayed emission); format: binding; details: Table S2, protein C377/C468-ER/DY; for E (LRET efficiency with ligand), steady-state measurements: 1-PB 40 µM, ANF 100 µM, BCT 2.5 µM, cholesterol 100 µM, testosterone 100 µM; for R (interprobe distance with ligand), steady-state measurements / ΔR, steady-state measurements: same ligand concentrations
Chain of double-labeled CYP3A4 C377/C468-DY/ER (P08684 13-503 S18F, form open): as above
How it was run: as §5

[6] = molecular target: CYP3A4 (double-labeled C64/C468-DY/ER) (Homo sapiens, UniProt P08684, form not given/S18F); assay: Ligand-induced spin shift, absorbance titration; format: binding; details: human, purified double-labeled CYP3A4 C64/C468-DY/ER protein, pH 7.4; read-out: K D or S 50
Chain of CYP3A4 (double-labeled C64/C468-DY/ER) (P08684 13-503 S18F, form open): as above
How it was run: as §4

[7] = molecular target: double-labeled CYP3A4 C64/C468-DY/ER (Homo sapiens, UniProt P08684, S18F, form not given); assay: Ligand-induced spin shift, absorbance titration; format: binding; details: (C64/C468)-DY/ER
Chain of double-labeled CYP3A4 C64/C468-DY/ER (P08684 13-503 S18F, form open): as above
How it was run: as §4

[8] = molecular target: CYP3A4 (double-labeled (C64/C468)-ER/DY) (Homo sapiens, UniProt P08684, form not given/S18F); assay: Steady-state LRET titration (delayed emission); format: binding; details: human, purified double-labeled CYP3A4 (C64/C468)-ER/DY protein, pH 7.4; (C64/C468)-ER/DY; LRET titration; read-out: K d, steady-state fluorescence
Chain of CYP3A4 (double-labeled (C64/C468)-ER/DY) (P08684 13-503 S18F, form open): as above
How it was run: as §5

[9] = molecular target: CYP3A4 (double-labeled C377/C468-DY/ER) (Homo sapiens, UniProt P08684, form not given/S18F); assay: Ligand-induced spin shift, absorbance titration; format: binding; details: purified double-labeled CYP3A4 C377/C468-DY/ER protein, pH 7.4, read-out: K D or S 50
Chain of CYP3A4 (double-labeled C377/C468-DY/ER) (P08684 13-503 S18F, form open): as above
How it was run: as §4

Chain of CYP3A4(C64/C121) mutant (P08684 with tags, fused parts or gaps S18F/C98S/A121C/C239S/C377S/C468A limits assumed): as the sequence (P08684 with tags, fused parts or gaps S18F) above, with C88S, A111C, C229S, C367S, C458A counted along it

| Compound | Kd (CYP3A4(C64/C121) mutant) | Kd [1] | Nh (Hill coefficient) (CYP3A4(C377/C468) mutant) | ΔF HS (amplitude of ligand-induced spin shift) (CYP3A4(C377/C468) mutant) | Nh (Hill coefficient) (CYP3A4(C64/C468) mutant) | ΔF HS (amplitude of ligand-induced spin shift) (CYP3A4(C64/C468) mutant) | Kd [3] | Kd [4] | E (LRET efficiency with ligand), steady-state measurements [5] | R (interprobe distance with ligand), steady-state measurements [5] | ΔR, steady-state measurements [5] | other results |
| --- | --- | --- | --- | --- | --- | --- | --- | --- | --- | --- | --- | --- |
| OCCCCc1ccc2ccc3cccc4ccc1c2c34 [1-PB, 1-pyrenebutanol] | 16 ± 8 µM | 9.5 ± 0.9 µM | 1.2±0.2 | 29±9% | 1.2±0.1 | 43±5% | 5.4 ± 2.1 µM | 22.2 ± 4 µM | 16± 1% | 44.5 ± 0.7 Å | −0.2 ± 0.7 Å | Nh (Hill coefficient) (CYP3A4(C64/C121) mutant; C64/C121): 1.3±0.5; ΔF HS (amplitude of ligand-induced spin shift) (CYP3A4(C64/C121) mutant; C64/C121): 17±10%; Nh (Hill coefficient) ([1]; W/T): 1.6±0.4; ΔF HS (amplitude of ligand-induced spin shift) ([1]; W/T): 50±1%; Nh (Hill coefficient) [2]: 1.3±0.1; ΔF HS (amplitude of ligand-induced spin shift) [2]: 18±2% |
| O=c1cc(-c2ccccc2)oc2c1ccc1ccccc12 [ANF, α-naphthoflavone] | 8.6 ± 1.6 µM | 7.4 ± 1.6 µM | 1.4±0.2 | 24±12% | 1.8±0.2 | 39±8% | – | 9.1 ± 2.9 µM | 14 ± 0% | 45.2 ± 0.1 Å | 0.5 ± 0.1 Å | Nh (Hill coefficient) (CYP3A4(C64/C121) mutant; human, pH 7.4): 1.3±0.4; ΔF HS (amplitude of ligand-induced spin shift) (CYP3A4(C64/C121) mutant; human, pH 7.4): 19±4%; Nh (Hill coefficient) ([1]; human, pH 7.4): 1.9±0.3; ΔF HS (amplitude of ligand-induced spin shift) ([1]; human, pH 7.4): 41±1%; Kd [6]: 4.2 ± 0.9 µM; Nh (Hill coefficient) [7]: 1.5±0.1; ΔF HS (amplitude of ligand-induced spin shift) [7]: 13±1%; Kd [8]: 17.3 ± 7.2 µM |
| CC(C)C[C@H]1C(=O)N2CCC[C@H]2[C@]2(O)O[C@](NC(=O)[C@@H]3C=C4c5cccc6[nH]c(Br)c(c56)C[C@H]4N(C)C3)(C(C)C)C(=O)N12 [Bromocriptine, Bromocriptine mesylate] | – | – | – | – | – | – | 0.28 ± 0.1 µM | 0.7 ± 0.1 µM | – | 44.7 ± 0.1 Å | 0.0 ± 0.1 Å | Kd [9]: 0.93 ± 0.6 µM |
